Activity calls are given as the source filed them.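 How the source made its calls: active means fitted curve falls past a set limit of signal loss at no more than twice the top dose; inconclusive means flat fit between 30 and 70% signal loss, or poor fit; inactive means signal rise, flat within 30%, or crossing too high.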
Assay: ATP-based viability loss in HEK293T cells – cell-based, CellTiter-Glo luminescence, cherry-pick, set 3, cytotoxicity control, dose response (AID 720588)
Conditions: HEK293T viability, CellTiter-Glo ATP luminescence, 72 h; at 2.85 µM (top of the series)
In the case of `COC(=O)C[C@@H]1CC[C@@H]2[C@H](COc3ccc(NC(=O)Nc4cccc(Cl)c4)cc3C(=O)N2C)O1`, the activity change, negative = cytotoxicity is reported as 39.1% (inactive).

Same assay, conditions: HEK293T viability, CellTiter-Glo ATP luminescence, 72 h; at 21 µM (top of the series)
With `Cc1ccc(S(=O)(=O)N(C)C[C@@H]2Oc3ccc(NC(=O)CCCCCC(=O)Nc4ccccc4N)cc3CC(=O)N([C@@H](C)CO)C[C@@H]2C)cc1` the activity change, negative = cytotoxicity was 3.82% (inactive). With `COc1ccc(CN(C)C[C@H]2Oc3ccc(NC(=O)CCCCCC(=O)Nc4ccccc4N)cc3CC(=O)N([C@H](C)CO)C[C@H]2C)cc1` the activity change, negative = cytotoxicity was -29.4% (inactive). In the case of `C[C@H]1CN([C@@H](C)CO)C(=O)Cc2cc(NC(=O)CCC(F)(F)F)ccc2O[C@H]1CN(C)Cc1ccc(C(=O)Nc2ccccc2N)cc1`, the activity change, negative = cytotoxicity is reported as -31.3% (inactive).

Same assay, conditions: HEK293T viability, CellTiter-Glo ATP luminescence, 72 h; at 23.5 µM (top of the series)
With `COC(=O)C[C@@H]1CC[C@@H]2[C@H](COc3ccc(NC(=O)c4cccc(F)c4)cc3C(=O)N2C)O1` the activity change, negative = cytotoxicity was -28.5% (inactive).

Same assay, conditions: HEK293T viability, CellTiter-Glo ATP luminescence, 72 h; at 26 µM (top of the series)
With `C[C@H]1CN([C@@H](C)CO)C(=O)c2cc(NS(=O)(=O)c3ccc(Cl)cc3)ccc2O[C@H]1CN(C)Cc1ccc(C(=O)Nc2ccccc2N)cc1` the activity change, negative = cytotoxicity was -0.354% (inactive). With `COc1ccccc1N(/N=C1\Sc2ccccc2C1=O)C(C)=O` the activity change, negative = cytotoxicity was -23.6% (inactive). For `C[C@@H]1CN([C@@H](C)CO)S(=O)(=O)c2ccc(C#CCN(C)C)cc2O[C@@H]1CN(C)Cc1ccncc1`, the activity change, negative = cytotoxicity was 52.2% (inactive). For `N/C(Cc1nc(-c2ccc(F)cc2)cs1)=N\O`, the activity change, negative = cytotoxicity was -17.4% (inactive). With `C[C@H]1CN([C@@H](C)CO)C(=O)Cc2cc(NC(=O)CCCCCC(=O)Nc3ccccc3N)ccc2O[C@H]1CN(C)Cc1ccc(Oc2ccccc2)cc1` the activity change, negative = cytotoxicity was -3.08% (inactive). With `COc1ccccc1-c1cn(CC[C@H]2CC[C@@H](NC(=O)C3CCCC3)[C@@H](CO)O2)nn1` the activity change, negative = cytotoxicity was 0.512% (inactive). With `COCC(=O)Nc1ccc2c(c1)[C@@H]1C[C@@H](CC(=O)NCc3ccc(-c4ccccc4)cc3)O[C@@H](CO)[C@@H]1O2` the activity change, negative = cytotoxicity was 13.6% (inactive). In the case of `CCOC(=O)c1c(-c2ccc(C)cc2)csc1NC(=O)CCN1CCOCC1`, the activity change, negative = cytotoxicity is reported as 5.98% (inactive). In the case of `COc1cc2c(cc1OC)C(C)N(C(=O)c1cc(Cl)nc(Cl)c1)CC2` (centres undefined), the activity change, negative = cytotoxicity is reported as -13.4% (inactive). For `O=C1C(=O)N(CCS(=O)(=O)c2ccccc2)c2ccccc21`, the activity change, negative = cytotoxicity was 17.1% (inactive). In the case of `Cc1cc(C(=O)NNC(=O)c2ccc(S(=O)(=O)N(C)C)cc2)c(C)o1`, the activity change, negative = cytotoxicity is reported as -12.5% (inactive). With `C[C@@H]1CN([C@H](C)CO)C(=O)c2cc(C#CCc3ccccc3)cnc2O[C@@H]1CN(C)Cc1cccc(F)c1` the activity change, negative = cytotoxicity was -3.37% (inactive). In the case of `COc1ccc(N=C(NN)c2ccc3ccccc3n2)cc1`, the activity change, negative = cytotoxicity is reported as -17.4% (inactive). In the case of `CCOC(=O)Cc1csc(NC(=S)NC(=O)c2ccc(C)cc2)n1`, the activity change, negative = cytotoxicity is reported as -21.9% (inactive). With `CC(NC(=O)c1ccco1)c1nc(-c2ccc(C(C)(C)C)cc2)no1` (centres undefined) the activity change, negative = cytotoxicity was -23% (inactive). For `COc1ccc(/C=C2\SC(=S)N(CCCC(=O)Nc3ccc(O)cc3)C2=O)cc1`, the activity change, negative = cytotoxicity was -27.6% (inactive). In the case of `Cc1[nH][nH]c(=O)c1C(c1c(C)[nH][nH]c1=O)c1cn(Cc2ccc(Cl)c(Cl)c2)c2ccccc12`, the activity change, negative = cytotoxicity is reported as -16% (inactive). In the case of `Nc1ccc(-c2cc3ccccc3oc2=O)cc1`, the activity change, negative = cytotoxicity is reported as -22% (inactive). With `CCCCOc1ccc(NC(=O)C(=O)NCCCn2ccnc2)cc1` the activity change, negative = cytotoxicity was -3.53% (inactive). For `Cc1ccc(S(=O)(=O)Nc2ccc3c(c2)C(=O)N([C@@H](C)CO)C[C@@H](C)[C@H](CN(C)Cc2ccc(C(F)(F)F)cc2)OCCCC[C@H](C)O3)cc1`, the activity change, negative = cytotoxicity was -33.3% (inactive). For `COC(=O)C[C@@H]1CC[C@@H]2[C@@H](COc3ccc(NC(=O)Cc4cccs4)cc3C(=O)N2C)O1`, the activity change, negative = cytotoxicity was -8.47% (inactive). With `CCOc1ccc(NC(=O)C(=O)N/N=C\c2ccc(CNS(=O)(=O)c3ccccc3)o2)cc1` the activity change, negative = cytotoxicity was -24.2% (inactive). With `C[C@@H]1CCCCO[C@@H](CN(C)C(=O)Cc2ccccc2)[C@@H](C)CN([C@@H](C)CO)C(=O)c2cc(NS(=O)(=O)c3ccc(F)cc3)ccc2O1` the activity change, negative = cytotoxicity was 4.58% (inactive). In the case of `C[C@@H]1CN([C@@H](C)CO)C(=O)Cc2cc(NS(=O)(=O)c3cccs3)ccc2O[C@H]1CN(C)Cc1ccc(Cl)c(Cl)c1`, the activity change, negative = cytotoxicity is reported as -34.4% (inactive). For `COc1ccc(C2=Nn3c(nnc3-c3ccccc3F)SC2)cc1OC1CCOC1` (centres undefined), the activity change, negative = cytotoxicity was -7.39% (inactive). With `Cc1c(Cc2ccc3c(c2)OCO3)sc(NC(=O)C(C)(C)C)c1C#N` the activity change, negative = cytotoxicity was -13.7% (inactive). For `COc1ccc(Nc2ncnc3ccc(Br)cc23)c(OC)c1`, the activity change, negative = cytotoxicity was -18.8% (inactive). In the case of `Cc1nc2ncccn2c1-c1csc(Nc2ccc(O)cc2)n1`, the activity change, negative = cytotoxicity is reported as 23.7% (inactive). For `CC(=O)N1CCCC(c2cc(C(=O)Nc3ccccc3)no2)C1` (centres undefined), the activity change, negative = cytotoxicity was -1.97% (inactive). For `COC(=O)[C@H]1[C@H](CO)[C@H]2Cn3c(ccc(-c4ccccc4F)c3=O)[C@@H]1N2CC1CCCC1`, the activity change, negative = cytotoxicity was 56.8% (inactive). With `COc1ccc(C(=O)OCC(=O)Nc2ccc(Cl)c(C(F)(F)F)c2)c(OC)c1OC` the activity change, negative = cytotoxicity was 6.28% (inactive). In the case of `CCc1ccc2oc(C(=O)N3CCN(c4ccccc4OC)CC3)cc(=O)c2c1`, the activity change, negative = cytotoxicity is reported as -13.2% (inactive). For `Nc1ccc(Oc2ccccc2-c2ccccc2)cc1`, the activity change, negative = cytotoxicity was -8.94% (inactive). With `O=C(CCCN1C(=O)/C(=C/c2ccccc2Cl)SC1=S)NNC(=O)c1ccc(Cl)cc1Cl` the activity change, negative = cytotoxicity was 12.7% (inactive). With `Cc1ccc(C(=O)CN2C(=O)c3ccccc3S2(=O)=O)cc1` the activity change, negative = cytotoxicity was -1.54% (inactive). In the case of `Cc1cccc(N2CCN(C3C(=O)Nc4ccccc4-n4nnnc43)CC2)c1C` (centres undefined), the activity change, negative = cytotoxicity is reported as -24.4% (inactive). For `CN(C)c1ccc(N=Nc2ccccc2Br)cc1`, the activity change, negative = cytotoxicity was -16.8% (inactive). In the case of `CC(C)(C)C(=O)Nc1ccc(N=Nc2ccccc2)cc1`, the activity change, negative = cytotoxicity is reported as -5.33% (inactive). For `COc1ccc(C2c3cc4c(cc3OC(NNC(N)=O)C2C)OCO4)cc1` (centres undefined), the activity change, negative = cytotoxicity was -16.2% (inactive). In the case of `N#C[C@@H]1[C@H](c2ccc(C#Cc3cccc(F)c3)cc2)[C@@H](CO)N1C(=O)C1CCCC1`, the activity change, negative = cytotoxicity is reported as 38% (inactive). In the case of `COC(=O)C[C@@H]1CC[C@@H]2[C@@H](COc3ccc(NC(=O)Nc4ccc(C#N)cc4)cc3C(=O)N2C)O1`, the activity change, negative = cytotoxicity is reported as 47.6% (inactive). With `Cc1csc(NC(=O)CCc2c(C)nc3cc(-c4ccc(Cl)cc4)nn3c2C)n1` the activity change, negative = cytotoxicity was -13.4% (inactive). In the case of `C[C@@H]1CN([C@H](C)CO)C(=O)c2cc(NC(=O)CCCCCC(=O)Nc3ccccc3N)ccc2O[C@H]1CN(C)S(=O)(=O)c1ccc(Cl)cc1`, the activity change, negative = cytotoxicity is reported as -21.5% (inactive). In the case of `N#CC1C=Cc2c(ccc3ccccc23)N1C(=O)c1ccccc1` (centres undefined), the activity change, negative = cytotoxicity is reported as -20.1% (inactive). In the case of `CCOc1cc(N2CCC(O)CC2)ccc1Nc1ncc2c(n1)N(C)c1ccccc1C(=O)N2C`, the activity change, negative = cytotoxicity is reported as 22.8% (inactive). For `COc1cccc(OC)c1C(=O)Nc1cc(C)nn1-c1nc2ccccc2[nH]1`, the activity change, negative = cytotoxicity was -11.9% (inactive). With `C[C@H](CO)N1C[C@H](C)[C@@H](CN(C)Cc2ccc(Oc3ccccc3)cc2)Oc2ccc(NS(=O)(=O)c3ccc(Cl)cc3)cc2CC1=O` the activity change, negative = cytotoxicity was -17.7% (inactive). With `Cc1c(Cl)cccc1NC(=O)CCC(=O)N/N=C/c1ccc[nH]1` the activity change, negative = cytotoxicity was 12% (inactive). In the case of `CC1(C)Oc2cc3oc(-c4cc(O)cc(O)c4)cc3cc2CC1O` (centres undefined), the activity change, negative = cytotoxicity is reported as -1.31% (inactive). In the case of `CCOc1cc2[nH]c(=S)n(Cc3ccc(C(=O)NCCN(CC)CC)cc3)c(=O)c2cc1OCC`, the activity change, negative = cytotoxicity is reported as -4.81% (inactive). In the case of `COc1ccc(NC(=O)c2cc3ccccc3oc2=O)cc1`, the activity change, negative = cytotoxicity is reported as -17.4% (inactive). In the case of `COc1ccc(N=C2C(=O)Nc3ccc(C)c(Br)c32)cc1`, the activity change, negative = cytotoxicity is reported as -21.9% (inactive). With `O=C(NCc1ccccn1)c1ccc(CNS(=O)(=O)c2cccc(Cl)c2)cc1` the activity change, negative = cytotoxicity was -15.8% (inactive). With `CN(C)C(=O)c1ccc(-c2ccccc2[C@@H]2[C@@H](CO)N(C(=O)C3CC3)[C@H]2C#N)cc1` the activity change, negative = cytotoxicity was 13.4% (inactive). For `Nc1cc2c(cc1Br)[nH]c(=O)c1ccccc12`, the activity change, negative = cytotoxicity was 17.5% (inactive). In the case of `CC(C)CC(NC(=O)c1cccs1)c1nnc(SCc2ccc(Cl)c(Cl)c2)n1C` (centres undefined), the activity change, negative = cytotoxicity is reported as -6.67% (inactive). For `CC(C)Oc1ccc(Br)cc1C(=O)N/N=C/c1c[nH]c2ccccc12`, the activity change, negative = cytotoxicity was -16.4% (inactive). With `COC(=O)c1cccc(NC(=O)NC(=O)c2ccccc2Cl)c1` the activity change, negative = cytotoxicity was -19% (inactive). With `COc1ccc(/C=C2\SC(=S)N(CCCC(=O)NC3CCCC3)C2=O)cc1OC` the activity change, negative = cytotoxicity was -24.3% (inactive). For `Cc1cc(C)cc(OCC(=O)OCC(=O)Nc2cc(S(=O)(=O)N3CCOCC3)ccc2C)c1`, the activity change, negative = cytotoxicity was -14.2% (inactive). With `OCC1OC(n2cnc3c(NCc4ccco4)ncnc32)C(O)C1O` (centres undefined) the activity change, negative = cytotoxicity was -35.2% (inactive). With `O=C(O)c1cccc(N/N=C/c2cccs2)c1` the activity change, negative = cytotoxicity was -19.1% (inactive). With `CCCCN=C(NNc1ccc(Br)cc1)C(=O)OCC` the activity change, negative = cytotoxicity was -39.4% (inactive). For `COC(=O)C[C@H]1C=C[C@@H](NC(=O)Nc2ccc(C(F)(F)F)cc2)[C@H](CO)O1`, the activity change, negative = cytotoxicity was 4.22% (inactive). For `COc1cc(/C=C/C(=O)/C=C(O)/C=C/c2ccc(O)c(OC)c2)ccc1O`, the activity change, negative = cytotoxicity was -35.9% (inactive). With `Cc1occc1-c1n[nH]c(=S)n1C` the activity change, negative = cytotoxicity was -10.6% (inactive). With `Cc1ccccc1NC(=O)C(=Cc1ccc(C(=O)O)cc1)C(=O)Nc1ccccc1C` the activity change, negative = cytotoxicity was -47.2% (inactive). In the case of `COc1cc(/C=N/NS(=O)(=O)c2ccc(C)cc2)ccc1OCc1cccc(C(=O)O)c1`, the activity change, negative = cytotoxicity is reported as 5.87% (inactive). In the case of `O=C(N/N=C/c1cnc(N2CCCCC2)s1)c1ccc(C(F)(F)F)cc1`, the activity change, negative = cytotoxicity is reported as -9.42% (inactive).
